Consider seven compounds from patent US9975848B2, “Inhibitors of HIV-1 entry and methods of use thereof” (priority 2014, dated 2018).

As a reminder, the Kd is the concentration at which binding is half-saturated. Low values mean higher affinity, high ones lower affinity. A word on the MTD: it is the largest dose that counted as tolerated.

Several values for one entry are separate records, joined by “and”; a condition that tells them apart may be missing. Equal entries are not always repeated. Where two headings read alike, the source gives them in different places. A value given as a limit tells only on which side of the number the result lay.

Data set [1] relates to YU-2. In words: Infection by single-round luciferase viruses, HIV-1 YU-2 envelope. In kind it is cell-based. As to conditions: Human immunodeficiency virus 1, 48 h, read-out: YU-2 (μM). The protocol: (§1) Compounds: Compounds are dissolved in dimethyl sulfoxide at a stock concentration of 10 mM, aliquoted, and stored at −20° C. Each compound is then diluted to 1 mM in serum-free Dulbecco's modified Eagle medium (DMEM) and used for different assays.
(§2) Cell Lines: 293T human embryonic kidney and Cf2Th canine thymocytes (ATCC) are grown at 37° C. and 5% CO2 in Dulbecco's modified Eagle's medium (Invitrogen) containing 10% fetal bovine serum (Sigma) and 100 μg/mL penicillin-streptomycin (Mediatech, Inc.). Cf2Th cells stably expressing human CCR5 and CD4 are grown in medium supplemented with 0.4 mg/mL G418 and 0.2 mg/mL hygromycin (Invitrogen).
(§3) Recombinant Luciferase Viruses: 293T human embryonic kidney cells were co-transfected with plasmids expressing the pCMVΔP1Δenv HIV-1 Gag-Pol packaging construct, the R5 YU2 envelope glycoproteins, or the envelope glycoprotein of the control amphotropic murine leukemia virus (A-MLV), and the firefly luciferase-expressing vector at a DNA ratio of 1:1:3 μg using the Effectene transfection reagent (Qiagen). Co-transfection produced single-round, replication-defective viruses. The virus-containing supernatants were harvested 36-40 h after transfection, spun, aliquoted, and frozen at −80° C. until further use. The reverse transcriptase (RT) activities of all viruses were measured as described in Rho, H. M., et al. Virology 1981, 112, 355-360.
(§4) Infection by Single-Round Luciferase Viruses. Cf2Th-CCR5-CD4 target cells were seeded at a density of 6×10^3 cells/well in 96-well luminometer-compatible tissue culture plates (PerkinElmer) 24 h before infection. On the day of infection, CD4-mimetic compounds of interest (0-100 μM) were incubated with recombinant viruses (10,000 RT units) at 37° C. for 30 min. In the case of sensitization assays, a constant concentration of compounds was incubated with virus for 30 min at 37° C.; then, 17b or other antibodies (0-100 μg/mL) were added to the virus/compound mixture and incubated for an additional 30 min at 37° C. The mixtures were then added to the target cells and incubated for 48 h at 37° C.; after this time, the medium was removed from each well, and the cells were lysed by the addition of 30 μL passive lysis buffer (Promega) and three freeze-thaw cycles. An EG&G Berthold Microplate Luminometer LB 96V was used to measure the luciferase activity of each well after the addition of 100 μL of luciferin buffer (15 mM MgSO4, 15 mM KPO4, pH 7.8, 1 mM ATP, and 1 mM dithiothreitol) and 50 μL of 1 mM Firefly D-Luciferin Free Acid 99% (Prolume).

Data set [2] concerns the target T1, monomeric YU-2 gp120 (Human immunodeficiency virus type 1 group M subtype B, UniProt P35961).
T1 construct: containing monomeric YU-2 gp120 at a concentration of 2 μM
The data set is described as follows: biochemical. As to conditions: ITC, 25° C., PBS pH 7.4, 2% DMSO. In kind it is binding, HIV-1. How it is done: Isothermal Titration Calorimetry. Thermodynamic parameters for the binding of the different inhibitors to gp120 were obtained by isothermal titration calorimetry (ITC) using a VP-ITC microcalorimeter from MicroCal/GE Healthcare (Northampton, Mass., USA). The titrations were performed at 25° C. by injecting 10 μL aliquots of inhibitor solution into the calorimetric cell (volume ˜1.4 mL) containing monomeric YU-2 gp120 at a concentration of 2 μM. […] In all titration experiments, gp120 and the different inhibitors were equilibrated with PBS, pH 7.4, with 2% DMSO. The heat evolved upon each injection of inhibitor was obtained by integration of the calorimetric signal. The heat associated with inhibitor binding to gp120 was obtained by subtracting the heat of dilution from the heat of reaction.

A short description of data set [3]: Evaluation of blood-brain barrier: brain and plasma concentrations. The data set is classed as in vivo. As to conditions: 1 hr post IP at 5 mg/kg, female CD1 mice. How it is done: Compound BNM-III-170 was administered to mice under a protocol approved by the University of Pennsylvania Institutional Animal Care and Use Committee. Specifically, BNM-III-170, dissolved in DMSO, was administered IP at 5 mg/kg to 3 month old female CD1 mice. Mice were euthanized 1 hour post dose. Brain and plasma were then collected.
Hemi-brains were homogenized with 10 mM ammonium acetate pH 4.0 (50% w/v) using a sonic dismembrator. Brain homogenate and plasma were extracted with 4 parts (v/v) acetonitrile, vortexed, and centrifuged at 15,000 g for 10 minutes. Supernatants were analyzed by LC-MS/MS using a Waters Acuity UPLC-TQMS. Samples (5 μL) were separated using a BEH C18 column (1.7 μm, 2.1×50 mm) at 0.6 mL/min from 5 to 95% acetonitrile with 0.1% formic acid over 2 minutes. BNM-III-170 was detected in positive ion mode using selected reaction monitoring of a specific collision induced ion transition (447.3>184.1 m/z). Unknown peak areas were quantified against standard curves constructed with BNM-III-170 spiked mouse brain homogenate or plasma extracted as above to final concentrations from 1 to 1000 ng/mL.

The test system of data set [4] is A-MLV. In words: Infection by single-round luciferase viruses, control A-MLV envelope. In kind it is cell-based, amphotropic murine leukemia virus. As to conditions: Murine leukemia virus, 48 h, read-out: A-MLV (μM). The protocol:
as §1, §2, §3, §4

The nature of data set [5]: Assessment of the maximum tolerated dose (MTD). As to conditions: mouse, in vivo, ip; intraperitoneal, CD-1 mice. The protocol:
Procedure: (+)-BNM-III-170 was dissolved in DMSO to a final concentration of 10 mg/mL. This solution was then used for intraperitoneal administration to CD-1 mice at various doses to examine for visible signs of intolerance after compound dosing. This included an assessment of hyper- or hypoactivity, altered locomotion, ataxia, sedation, or other visible abnormalities. The compound was ultimately tested at three doses (30 mg/kg, 10 mg/kg and 3 mg/kg), as outlined below, with the amounts injected per mouse and the behavioral observations indicated for each dosing group.

In data set [6] the test system is JR-FL. The data set is described as follows: Infection by single-round luciferase viruses, HIV-1 JR-FL envelope. In kind it is cell-based. As to conditions: Human immunodeficiency virus 1, 48 h, read-out: JR-FL (μM).
The subject of data set [7] is AD8. In words: Infection by single-round luciferase viruses, HIV-1 AD8 envelope. As to conditions: Human immunodeficiency virus 1, 48 h, read-out: AD8 (μM). The data set is classed as cell-based.
In data set [8] the target is gp120 (Human immunodeficiency virus type 1 group M subtype B, UniProt P35961). As to conditions: background statement; cited from earlier work.

Consider `CNCc1ccc2c(c1)C[C@H](CNC(=N)N)[C@H]2NC(=O)C(=O)Nc1ccc(Cl)c(F)c1` [(+)-BNM-III-170], for which the IC50 in data set [1] worked out at 1.5 ± 0.8 µM. Besides, in data set [2], the affinity, expressed as Kd, was 0.047 µM; the “ΔG” value is -10.0 kcal/mol; the “ΔH” value is -20.7 kcal/mol; the “−TΔS (kcal/mol)” value is “+10.7 kcal/mol”. Further, in data set [3] (individual mice 1-3), the B/P was 0.51 and 0.14 and 0.45; the Brain was 268 ng/g and 131 ng/g and 122 ng/g; the “Plasma” value was 522 ng/mL and 910 ng/mL and 270 ng/mL. Further, the Kp at 1 h in data set [3] (female, CD1, mouse, brain, ip, 5 mg/kg, AVG of 3 mice, read-out: B/P) is 0.37. Besides, the concentration at 1 h in data set [3] (female, CD1, mouse, brain, ip, 5 mg/kg, AVG of 3 mice, read-out: Brain) is 174 ng/g. Moreover, in data set [3] (female, CD1, mouse, plasma, ip, 5 mg/kg, AVG of 3 mice, read-out: Plasma), the concentration at 1 h amounted to 567 ng/mL. Also, the IC50 in data set [4] is greater than 100 µM. Further, in data set [5], the MTD was 3 to 9 mg/kg. Also, in data set [6], the IC50 amounted to 14.2 ± 4.5 µM. The IC50 in data set [7] worked out at 6.4 ± 1 µM.
In the case of `CN(Cc1ccccc1)Cc1ccc2c(c1)C[C@H](CNC(=N)N)[C@H]2NC(=O)C(=O)Nc1ccc(Cl)c(F)c1` [(+)-BNM-IV-125], the IC50 in data set [4] is greater than 100 µM; in data set [6] it was 14 ± 2 µM.
Turning to `CN(Cc1ccc2c(c1)C[C@H](CNC(=N)N)[C@H]2NC(=O)C(=O)Nc1ccc(Cl)c(F)c1)C(=N)N` [(+)-BNM-IV-147], the IC50 in data set [1] was 0.8 ± 0.02 µM. Also, in data set [2], the Kd is 0.095 µM, the “ΔG” value was -9.6 kcal/mol, the “ΔH” value is -15.4 kcal/mol and the “−TΔS (kcal/mol)” value is given as “+5.8 kcal/mol”. For the same compound, in data set [4], the IC50 is greater than 100 µM. Further, the IC50 in data set [6] was 6.2 ± 0.5 µM. Also, the IC50 in data set [7] was 3.3 ± 0.2 µM.
For the compound `N=C(N)NC[C@H]1Cc2ccccc2[C@@H]1NC(=O)C(=O)Nc1ccc(Cl)c(F)c1` [(+)-DMJ-II-121], the IC50 in data set [1] was determined as 3.8 ± 1.3 µM; in data set [4] it was 94.3 ± 5.7 µM; in data set [6], 66.8 ± 9.5 µM; in data set [7] it was 8.5 ± 2.1 µM. Further, the “ΔG” value in data set [2] is -9.5 kcal/mol. In addition, in data set [2], the “ΔH” value was -17.9 kcal/mol. In data set [2], the “−TΔS (kcal/mol)” value is “+8.4 kcal/mol”.
For `CNCc1ccc2c(c1)[C@H](NC(=O)C(=O)Nc1ccc(Cl)c(F)c1)[C@@H](CNC(=N)N)C2` [(+)-JP-III-048], the IC50 in data set [1] came out at 2.1 ± 0.9 µM. Further, in data set [2], binding was characterised by a dissociation constant (Kd) of 0.024 µM, the “ΔG” value was -10.4 kcal/mol, the “ΔH” value was -28.2 kcal/mol and the “−TΔS (kcal/mol)” value is recorded as “+17.8 kcal/mol”. Besides, the IC50 in data set [4] is greater than 100 µM. For the same compound, in data set [6], the IC50 was 37.3 ± 13.8 µM. Moreover, in data set [7], the IC50 was 6.7 ± 0.6 µM.
Consider `CN(Cc1ccc2c(c1)[C@H](NC(=O)C(=O)Nc1ccc(Cl)c(F)c1)[C@@H](CNC(=N)N)C2)C(=N)N` [(−)-BNM-IV-197], for which the IC50 in data set [1] came to 1.2 ± 0.3 µM. Also, in data set [2], binding was characterised by a dissociation constant (Kd) of 0.095 µM, the “ΔG” value is -9.6 kcal/mol, the “ΔH” value was -14.2 kcal/mol and the “−TΔS (kcal/mol)” value was “+4.6 kcal/mol”. Moreover, the IC50 in data set [4] was 83.7 ± 16.4 µM. Moreover, the IC50 in data set [6] was determined as 19.5 ± 10.1 µM. In addition, the IC50 in data set [7] stood at 1.3 ± 0.2 µM.
`CC1(C)CC(NC(=O)C(=O)Nc2ccc(Cl)cc2)CC(C)(C)N1` [NBD-556]: in data set [8], the favorable enthalpy change was -24.5 kcal/mol and the “unfavorable entropy change, −TΔS, to Gibbs energy” value was 17.1 kcal/mol.
